# Results published in PMC6152318 (Molecules : A Journal of Synthetic Chemistry and Natural …, 2017).
# pKd: −log10 of the molar value.
# Columns and labels:
# [1] = biological target: T1, Human serum albumin (HSA) (Homo sapiens, UniProt P02768); test: Binding constants by quenching of HSA tryptophan fluorescence; settings: for K ± S.D. (binding constant): 6 μM HSA, pH 7.4, 25 °C, excitation 295 nm, 1:1 binding model
# T1 construct: Fatty acid free HSA and warfarin sodium were purchased from Sigma-Aldrich; purchased Sigma-Aldrich (St. Louis, MO, USA)
# T1 sequence (P02768 25-609): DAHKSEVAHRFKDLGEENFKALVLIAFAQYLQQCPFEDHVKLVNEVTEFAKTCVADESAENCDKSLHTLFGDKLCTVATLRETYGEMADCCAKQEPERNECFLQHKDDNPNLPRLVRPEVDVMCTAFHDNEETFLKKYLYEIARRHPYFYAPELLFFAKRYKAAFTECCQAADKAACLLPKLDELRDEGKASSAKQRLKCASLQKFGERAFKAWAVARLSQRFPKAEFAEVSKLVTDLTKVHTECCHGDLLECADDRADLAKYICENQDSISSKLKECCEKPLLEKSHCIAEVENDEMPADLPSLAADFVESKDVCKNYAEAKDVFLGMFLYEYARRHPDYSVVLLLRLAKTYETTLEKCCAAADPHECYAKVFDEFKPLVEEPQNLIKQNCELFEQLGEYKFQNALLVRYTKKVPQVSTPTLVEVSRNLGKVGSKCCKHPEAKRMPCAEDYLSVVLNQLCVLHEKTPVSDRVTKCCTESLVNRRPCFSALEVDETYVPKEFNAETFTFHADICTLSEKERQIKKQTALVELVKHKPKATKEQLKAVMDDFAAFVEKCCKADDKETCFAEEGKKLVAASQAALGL
# Procedure: In all experiments, the final co-solvent concentration was held below 5%. This was done to prevent conformational changes of HSA due to changes in dielectric constant of the solvent.
# Steady-state fluorescence was recorded using a thermostated Safas Xenius fluorometer (Safas Monaco, Monaco) with an integrated stirrer. All studies were performed at 25 ± 1 °C using 10 nm excitation and emission slit widths. […] Measurements were performed in duplicate.
# A stock solution of a single ligand was gradually added via syringe to a 2 mL of a 6 μM HSA solution placed in a quartz cell. Measurements were conducted at the excitation wavelength of 295 nm and emission was recorded in the 310–400 nm range enabling calculations of corresponding binding constants. […] Binding constants were determined according to Dufour and Dangles. A Scatchard analysis was performed assuming n identical binding sites on HSA. Values for binding constant (K), molar fluorescence intensity of the complex (f), and the stoichiometric coefficient (n) were estimated by fitting the F vs. Lt curves against Equations (1) and (2) using a least-square regression program Scientist (MicroMath, Salt Lake City, UT, USA), where F is fluorescence intensity, [L] the free ligand concentration, [Lt] the total ligand concentration, and c the total albumin concentration. […] In all cases, the inner filter effect was taken into account by using absorption of free ligands at excitation and emission wavelengths (εex and εem, respectively) (Equation (3)), where Fcorr is the fluorescence corrected for the inner filter effect, F0 is the measured fluorescence, ε is the sum of εex and εem, l = 0.65 is the optical path and c is the flavonoid concentration. (1) Fcorr=fcnK[L]/1+K[L] (2) [Lt]=[L](1+ncK/1+K[L]) (3) F0=Fcorr×10^−εlc
# [2] = biological target: Human serum albumin (HSA) IIA binding site (Homo sapiens, UniProt P02768); test: Flavonoid fluorescence (excitation 450 nm) on HSA pre-saturated with warfarin (simultaneous binding / displacement)
# Sequence of Human serum albumin (HSA) IIA binding site (P02768 25-609): as above
# Procedure: HSA was freshly dissolved in Dulbecco’s phosphate-buffered saline pH 7.4 (137 mM sodium chloride, 2.7 mM potassium chloride, 8.1 mM disodium hydrogen phosphate, 1.47 mM potassium dihydrogen phosphate) immediately before measurements. […]. In all experiments, the final co-solvent concentration was held below 5%. This was done to prevent conformational changes of HSA due to changes in dielectric constant of the solvent.
# Steady-state fluorescence was recorded using a thermostated Safas Xenius fluorometer (Safas Monaco, Monaco) with an integrated stirrer. All studies were performed at 25 ± 1 °C using 10 nm excitation and emission slit widths. […] Higher concentrations of HSA and ligands were not used due to poor solubility of ligands and high influence of ligand absorption. Measurements were performed in duplicate.
# [3] = Flavonoid fluorescence in buffer solution without HSA
# HSA [4] = settings: of its intensity without warfarin; cited from earlier work
# HSA [5] = settings: cited from earlier work
# [6] = HSA 0-92% saturated with warfarin
smiles,measurement,setting,value
O=c1c(O)c(-c2ccc(O)c(O)c2)oc2cc(O)cc(O)c12 [Quercetin],pKd,[1],5.16
same,Effect of warfarin on flavonoid Fmax (maximum fluorescence),[2]; [6],slightly decreased
same,Effect of warfarin on flavonoid cmax (concentration needed to achieve Fmax),[2]; [6],slight increase
same,Absolute fluorescence intensity,"[2]; flavonoid 2,00 uM, 0% occupied HSA","14,1006"
same,Absolute fluorescence intensity,"[2]; flavonoid 2,00 uM, 22% occupied HSA","14,3985"
same,Absolute fluorescence intensity,"[2]; flavonoid 2,00 uM, 38% occupied HSA","15,6001"
same,Absolute fluorescence intensity,"[2]; flavonoid 2,00 uM, 63% occupied HSA","14,9774"
same,Absolute fluorescence intensity,"[2]; flavonoid 2,00 uM, 92% occupied HSA","12,2760"
same,Absolute fluorescence intensity,"[2]; flavonoid 4,00 uM, 0% occupied HSA","18,1924"
same,Absolute fluorescence intensity,"[2]; flavonoid 4,00 uM, 22% occupied HSA","19,1798"
same,Absolute fluorescence intensity,"[2]; flavonoid 4,00 uM, 38% occupied HSA","20,1073"
same,Absolute fluorescence intensity,"[2]; flavonoid 4,00 uM, 63% occupied HSA","20,0687"
same,Absolute fluorescence intensity,"[2]; flavonoid 4,00 uM, 92% occupied HSA","16,0796"
same,Absolute fluorescence intensity,"[2]; flavonoid 6,00 uM, 0% occupied HSA","21,7864"
same,Absolute fluorescence intensity,"[2]; flavonoid 6,00 uM, 22% occupied HSA","22,8342"
same,Absolute fluorescence intensity,"[2]; flavonoid 6,00 uM, 38% occupied HSA","23,2658"
same,Absolute fluorescence intensity,"[2]; flavonoid 6,00 uM, 63% occupied HSA","23,0451"
same,Absolute fluorescence intensity,"[2]; flavonoid 6,00 uM, 92% occupied HSA","18,9492"
same,Absolute fluorescence intensity,"[2]; flavonoid 7,99 uM, 0% occupied HSA","25,2012"
same,Absolute fluorescence intensity,"[2]; flavonoid 7,99 uM, 22% occupied HSA","26,8970"
same,Absolute fluorescence intensity,"[2]; flavonoid 7,99 uM, 38% occupied HSA","26,0412"
same,Absolute fluorescence intensity,"[2]; flavonoid 7,99 uM, 63% occupied HSA","25,4057"
same,Absolute fluorescence intensity,"[2]; flavonoid 7,99 uM, 92% occupied HSA","21,2821"
same,Absolute fluorescence intensity,"[2]; flavonoid 11,98 uM, 0% occupied HSA","30,3340"
same,Absolute fluorescence intensity,"[2]; flavonoid 11,98 uM, 22% occupied HSA","31,0510"
same,Absolute fluorescence intensity,"[2]; flavonoid 11,98 uM, 38% occupied HSA","30,0611"
same,Absolute fluorescence intensity,"[2]; flavonoid 11,98 uM, 63% occupied HSA","29,3172"
same,Absolute fluorescence intensity,"[2]; flavonoid 11,98 uM, 92% occupied HSA","25,1156"
same,Absolute fluorescence intensity,"[2]; flavonoid 15,97 uM, 0% occupied HSA","33,9655"
same,Absolute fluorescence intensity,"[2]; flavonoid 15,97 uM, 22% occupied HSA","33,9646"
same,Absolute fluorescence intensity,"[2]; flavonoid 15,97 uM, 38% occupied HSA","33,4123"
same,Absolute fluorescence intensity,"[2]; flavonoid 15,97 uM, 63% occupied HSA","32,2916"
same,Absolute fluorescence intensity,"[2]; flavonoid 15,97 uM, 92% occupied HSA","28,2109"
same,Absolute fluorescence intensity,"[2]; flavonoid 23,93 uM, 0% occupied HSA","38,4893"
same,Absolute fluorescence intensity,"[2]; flavonoid 23,93 uM, 22% occupied HSA","37,6942"
same,Absolute fluorescence intensity,"[2]; flavonoid 23,93 uM, 38% occupied HSA","37,3757"
same,Absolute fluorescence intensity,"[2]; flavonoid 23,93 uM, 63% occupied HSA","36,2415"
same,Absolute fluorescence intensity,"[2]; flavonoid 23,93 uM, 92% occupied HSA","32,2392"
same,Absolute fluorescence intensity,"[2]; flavonoid 31,87 uM, 0% occupied HSA","40,5581"
same,Absolute fluorescence intensity,"[2]; flavonoid 31,87 uM, 22% occupied HSA","39,7022"
same,Absolute fluorescence intensity,"[2]; flavonoid 31,87 uM, 38% occupied HSA","39,4192"
same,Absolute fluorescence intensity,"[2]; flavonoid 31,87 uM, 63% occupied HSA","37,9878"
same,Absolute fluorescence intensity,"[2]; flavonoid 31,87 uM, 92% occupied HSA","34,7552"
same,Absolute fluorescence intensity,"[2]; flavonoid 39,80 uM, 0% occupied HSA","41,9281"
same,Absolute fluorescence intensity,"[2]; flavonoid 39,80 uM, 22% occupied HSA","41,0854"
same,Absolute fluorescence intensity,"[2]; flavonoid 39,80 uM, 38% occupied HSA","41,0246"
same,Absolute fluorescence intensity,"[2]; flavonoid 39,80 uM, 63% occupied HSA","39,4685"
same,Absolute fluorescence intensity,"[2]; flavonoid 39,80 uM, 92% occupied HSA","36,6753"
same,Absolute fluorescence intensity,"[2]; flavonoid 47,71 uM, 0% occupied HSA","41,6617"
same,Absolute fluorescence intensity,"[2]; flavonoid 47,71 uM, 22% occupied HSA","41,5821"
same,Absolute fluorescence intensity,"[2]; flavonoid 47,71 uM, 38% occupied HSA","41,3733"
same,Absolute fluorescence intensity,"[2]; flavonoid 47,71 uM, 63% occupied HSA","40,4449"
same,Absolute fluorescence intensity,"[2]; flavonoid 47,71 uM, 92% occupied HSA","37,3158"
same,Absolute fluorescence intensity,"[2]; flavonoid 63,49 uM, 0% occupied HSA","40,9892"
same,Absolute fluorescence intensity,"[2]; flavonoid 63,49 uM, 22% occupied HSA","40,4660"
same,Absolute fluorescence intensity,"[2]; flavonoid 63,49 uM, 38% occupied HSA","40,7086"
same,Absolute fluorescence intensity,"[2]; flavonoid 63,49 uM, 63% occupied HSA","39,7702"
same,Absolute fluorescence intensity,"[2]; flavonoid 63,49 uM, 92% occupied HSA","38,0617"
same,Absolute fluorescence intensity,"[2]; flavonoid 79,21 uM, 0% occupied HSA","39,3310"
same,Absolute fluorescence intensity,"[2]; flavonoid 79,21 uM, 22% occupied HSA","39,3997"
same,Absolute fluorescence intensity,"[2]; flavonoid 79,21 uM, 38% occupied HSA","39,3849"
same,Absolute fluorescence intensity,"[2]; flavonoid 79,21 uM, 63% occupied HSA","38,8686"
same,Absolute fluorescence intensity,"[2]; flavonoid 79,21 uM, 92% occupied HSA","37,3045"
same,Absolute fluorescence intensity,"[2]; flavonoid 98,77 uM, 0% occupied HSA","37,4633"
same,Absolute fluorescence intensity,"[2]; flavonoid 98,77 uM, 22% occupied HSA","37,3641"
same,Absolute fluorescence intensity,"[2]; flavonoid 98,77 uM, 38% occupied HSA","37,6865"
same,Absolute fluorescence intensity,"[2]; flavonoid 98,77 uM, 63% occupied HSA","37,3324"
same,Absolute fluorescence intensity,"[2]; flavonoid 98,77 uM, 92% occupied HSA","36,3823"
same,Absolute fluorescence intensity,"[3]; flavonoid 2,00 uM","0,8077"
same,Absolute fluorescence intensity,"[3]; flavonoid 4,00 uM","0,9540"
same,Absolute fluorescence intensity,"[3]; flavonoid 7,99 uM","1,1279"
same,Absolute fluorescence intensity,"[3]; flavonoid 15,97 uM","1,3080"
same,Absolute fluorescence intensity,"[3]; flavonoid 31,87 uM","1,5574"
same,Absolute fluorescence intensity,"[3]; flavonoid 47,71 uM","1,7477"
same,Absolute fluorescence intensity,"[3]; flavonoid 63,49 uM","2,0820"
same,Absolute fluorescence intensity,"[3]; flavonoid 79,21 uM","2,2472"
same,Absolute fluorescence intensity,"[3]; flavonoid 98,77 uM","2,4600"
same,Relative STD-NMR signal intensity in presence of warfarin,HSA [4],~ 40%
O=c1c(O[C@@H]2O[C@H](CO)[C@H](O)[C@H](O)[C@H]2O)c(-c2ccc(O)c(O)c2)oc2cc(O)cc(O)c12 [Hyperoside],pKd,[1],4.51
O=c1cc(-c2ccc(O)c(O)c2)oc2cc(O)c([C@@H]3O[C@H](CO)[C@@H](O)[C@H](O)[C@H]3O)c(O)c12 [Isoorientin],pKd,[1],4.66
CC(=O)CC(c1ccccc1)c1c(O)c2ccccc2oc1=O (stereo not shown) [Warfarin],Fraction of warfarin in blood bound to HSA,HSA [5],> 99%
O=c1cc(-c2ccc(O)c(O)c2)oc2cc(O[C@@H]3O[C@H](CO)[C@@H](O)[C@H](O)[C@H]3O)cc(O)c12 [Cynaroside],K ± S.D. (binding constant),[1],4.20 ± 0.25 × 10^4 M^−1
O=c1c(O[C@@H]2O[C@H](CO)[C@@H](O)[C@H](O)[C@H]2O)c(-c2ccc(O)c(O)c2)oc2cc(O)cc(O)c12 [Isoquercitrin],pKd,[1],4.65
O=C(O)[C@H]1O[C@@H](Oc2c(-c3ccc(O)c(O)c3)oc3cc(O)cc(O)c3c2=O)[C@H](O)[C@@H](O)[C@@H]1O,K ± S.D. (binding constant),[1],5.36 ± 0.13 × 10^4 M^−1
C[C@@H]1O[C@@H](OC[C@H]2O[C@@H](Oc3c(-c4ccc(O)c(O)c4)oc4cc(O)cc(O)c4c3=O)[C@H](O)[C@@H](O)[C@@H]2O)[C@H](O)[C@H](O)[C@H]1O [Rutin],pKd,[1],4.47
